Data set [1] is described as follows: clinical study in children with mild asthma: lower leg growth rate by knemometry. Type of data set: in vivo, human. The note with it: for lower leg growth rate: 2-week treatment, children 6 to 12 years, placebo 0.412 mm/week. The procedure: (§1) The present study was conducted to determine the effects of ciclesonide at doses intended for the use in children on lower leg growth rate and HPA function in children with mild asthma.
(§2) METHODS: In a double blind, randomized, placebo-controlled, 4-period cross-over study, 24 children, 6 to 12 years of age, received ciclesonide 40, 80 and 160 μg or placebo via HFA-MDI once daily in the evening. Each 2-week treatment period was followed by a 2-week washout. Knemometry was performed at the beginning and the end of each treatment period. Cortisol levels in 12 h overnight urine were measured at the end of each treatment period.

The nature of data set [2]: clinical study in children with mild asthma: HPA function, cortisol in 12 h overnight urine. The data set is classed as in vivo, human. The note with it: 40, 80 and 160 μg once daily or placebo, 12 h overnight urine at end of each 2-week period. Here is the method: as §1, §2
A short description of data set [3]: clinical study in children with mild asthma: tolerability. Type of data set: in vivo, human. The conditions noted are these: 40, 80 and 160 μg once daily, 2 weeks. Here is the method: as §1, §2
For data set [4] the following is noted: cited from earlier work.
The conditions of data set [5]: cited from earlier work. The source holds these as a separate data set.
Setting [6] is: 40, 80 and 160 μg once daily, 2 weeks.

Structures are written as SMILES.

Take `CC(C)C(=O)OCC(=O)[C@@]12O[C@H](C3CCCCC3)O[C@@H]1C[C@H]1[C@@H]3CCC4=CC(=O)C=C[C@]4(C)[C@H]3[C@@H](O)C[C@@]12C` [ciclesonide, [11β,16α(R)]-16,17-[(Cyclohexylmethylen)bis(oxy)]-11-hydroxy-21-(2-methyl-1-oxopropoxy)pregna-1,4-dien-3,20-dion]: the “lower leg growth rate” value in data set [1] (40 μg once daily in the evening via HFA-MDI) turned out to be 0.425 mm/week. In addition, the “lower leg growth rate” value in data set [1] (80 μg once daily in the evening via HFA-MDI) was 0.397 mm/week. Further, the “lower leg growth rate” value in data set [1] (160 μg once daily in the evening via HFA-MDI) is given as 0.370 mm/week. Further, in data set [1] (setting [6]), the “difference in lower-leg growth rates between ciclesonide treatments and placebo” value was “No statistically significant differences”; the “dose-response effect on lower leg growth rate” value was “no statistically significant dose-response effect”. The “urinary free cortisol adjusted for creatinine, difference between treatments” value in data set [2] is reported as “no difference”. The tolerability result in data set [3] was “well tolerated”. For the same compound, in data set [4] (in vivo), the systemic activity result is “low systemic activity”. In data set [4] (relative to budesonide), the “anti-inflammatory activity compared with budesonide” value was “higher” and the “systemic activity compared with budesonide” value was “three times lower”. In data set [5] (in vivo), the “concentration of the drug in the lungs” value is given as “high”, the “metabolism by liver oxidases” value was “very high” and the plasma half-life result is “low plasma half-life”. Moreover, in data set [5] (oral), the “absorption after oral administration” value is “only moderately absorbed”.

These data come from patent US8371292B2, “Use of ciclesonide for the treatment of respiratory diseases” (Nycomed GmbH, priority 2003, dated 2013).
